Measured values: PMC3025356, “Mechanism of the Ca^2+-Dependent Interaction between S100A4 and Tail Fragments of Nonmuscle Myosin Heavy Chain IIA” (Journal of Molecular Biology, 2011)
Like-named read-outs stand apart in the source and are kept apart here.

Key:
[1] = Stopped-flow Quin-2 fluorescence, Ca^2+ dissociation from / binding to S100A4 constructs (no target)
From the text: In order to increase the signal-to-noise ratio of the Ca^2+ dissociation transients, we used Quin-2 as combined fluorescent indicator and high-affinity chelator.[19,20] These measurements confirmed that Ca^2+ dissociated from wild-type protein with a rate constant of 16 s^− 1 (Fig. 3a; cf. 20 s^− 1 for the tyrosine signal). Given the poor signal-to-noise ratio of the tyrosine signal, the difference is barely significant but may reflect the fact that the Quin-2 signal represents at least a two-step sequential reaction (Ca^2+ dissociation from S100AS4, followed by rapid binding to Quin-2).
Fig. 3 (a) Dissociation of Ca^2+ from wild-type S100A4 (black), E33Q mutant (blue), and D63N mutant (red), as monitored by Quin-2 fluorescence. […] The records for the mutants were vertically offset for clarity. (b) Ca^2+ binding to S100A4 as determined from the amplitude of the resolved transient (k ≈ 20 s^− 1) when 6.5 μM S100A4 was preincubated with various added [Ca^2+] and then mixed with 100 μM Quin-2. The amplitude was converted into a bound concentration from an independent calibration using the same Quin-2 solution and known free [Ca^2+]. […] While either model could account for the data, the measured stoichiometry from ITC (Table 1) favors the cooperative model.
Stopped-flow measurements were carried out using an SX18-MV apparatus (Applied Photophysics Ltd., Leatherhead, UK) with a dead time of 1.5 ms.[40] Records were generally captured on a logarithmic time base. Absorption (turbidity) measurements were usually recorded using a 10-mm pathlength, while fluorescence was recorded with a 2-mm pathlength for excitation and emission. The stated concentrations of components refer to the reaction chamber after mixing, unless otherwise indicated. Tyrosine fluorescence was excited at 280 nm, and the emission was collected through a UG11 bandpass filter plus a 305-nm longpass filter.[18] Fluorescein fluorescence was excited at 480 nm, and the emission was detected through a 515-nm longpass filter. Quin-2 fluorescence was measured by excitation at 336 nm, and emission was collected with a 455-nm longpass filter. For simultaneous recording of light scatter, a second channel was monitored through a UG11 filter. Rate constants were obtained by fitting to single-exponential or double-exponential functions using Kaleidagraph (Synergy Software) or Applied Photophysics Pro-Data software. Modeling of kinetic schemes was performed using Berkeley Madonna software.

[2] = 37 °C, 20 mM KCl, cited from earlier work
Experimental: At 10 °C, the first site became associated with negative enthalpy but retained a ...

M200 filaments = type: biochemical, human
Experimental: Fig. 9 Dissociation of M200 filaments by S100A4. (a) Initially, M200 was added (i) from a concentrated stock in 0.5 M NaCl to give a final concentration of 5 μM M200 (with respect to the polypeptide chain) in 100 mM NaCl, 10 mM Hepes, and 0.1 mM Ca^2+ at pH 7.5 and 20 °C. A biphasic rise in turbidity was recorded for 200 s (continuous line). Then 10 μM S100A4 (with respect to monomer concentration) was added (ii), followed by 0.2 mM EGTA (iii) and 1 mM Ca^2+ (iv). […] (b) M200 was diluted (i) into 100 mM NaCl to form filaments as in (a), then 5 μM S100A4 was added (ii), causing a 54% drop in turbidity. A further 5 μM S100A4 (iii) caused turbidity to fall to almost zero. (c) Stopped-flow records monitoring the dissociation of 5 μM M200 filaments on jumping [NaCl] from 100 mM to 120 mM NaCl. Other components of the buffer were 20 mM Hepes, 1 mM Mg^2+, and 100 μM Ca^2+ at pH 7.5 and 20 °C. […] In the presence of 20 μM S100A4 (lower trace), the turbidity decreased by 87% with a rate constant of 0.2 s^− 1.
Absorption spectra were recorded using a Cary 50 spectrophotometer (Varian Ltd., Walton on Thames, UK). Protein concentrations were calculated from their absorbance at 280 nm, using molar coefficients of 2980 M^− 1 cm^− 1 (M200 and S100A4) and 1490 M^− 1 cm^− 1 (M111), based on their tyrosine content (two residues per chain and one residue per chain, respectively). Myosin fragments were measured in 0.5 M NaCl buffer, and care was taken to correct for the small contribution from turbidity. Protein concentrations are stated in terms of their monomeric polypeptide chain concentration. Under the conditions used for kinetic analysis, S100A4 is predominantly a dimer,[21,25] and M200 and M111 form stable coiled coils; therefore, the molar protein concentrations are half those given in all three cases. Fluorescence emission spectra were also checked, and those preparations containing a detectable shoulder at 340 nm due to contaminating tryptophan-containing proteins were subjected to further purification. F-M16^N concentrations were based on fluorescein absorbance (ɛ490 = 78,000 M^− 1 cm^− 1). […] Quin-2 concentrations were calculated from ɛ354 = 5000 M^− 1 cm^− 1 in the absence of Ca^2+.[39] Turbidity assays used to monitor M200 filament formation and solubilisation with manual mixing were carried out using a 10-mm pathlength and a 0.1-ml microcuvette (105.250-QS; Hellma, Southend on Sea, UK) at a wavelength of 300 nm. For determination of the free Ca^2+ concentration, Fura-2 fluorescence excitation spectra were measured in the same cuvette using the 2-mm path for excitation to minimise inner filter effects.

[3] = cited from earlier work
From the text: Apart from the different methods used to study Ca^2+ binding, which have sensitivities over different concentration ranges, part of the variability in Kd values in the literature may arise from the self-association of S100A4. There is a general consensus[12,13,17,21,22] that S100A4 exists predominantly as a dimer at micromolar concentrations (indeed, this can lead to difficulties in interpreting literature values for stoichiometries quoted as ‘moles of Ca^2+ bound per mole of S100A4’ if the latter is not stated explicitly as being per monomer or per dimer). In the absence of Ca^2+, monomeric S ... || In the absence of added Ca^2+ (i.e., where the free “contaminant” [Ca^2+] in buffers would be of the order of 1 μM), mixing S100A4 with excess Quin-2 produced a small-amplitude signal (corresponding to 0.1 mol of Ca^2+ per mole of S100A4 monomer) with a rate constant of around 1 s^− 1.

Kd ([1]; model for Fig. 3b data, read-out: Kd, EF2 site (alternative model)): 5 µM
Kd ([1]; model for Fig. 3b data, read-out: Kd, first Ca^2+ at EF2 of dimer (cooperative model)): 100 µM
Kd ([1]; model for Fig. 3b data, read-out: Kd, second Ca^2+ at EF2 of dimer (cooperative model)): 1.7 µM
rate constant without added Ca^2+ ([1]; no added Ca^2+, excess Quin-2): around 1 s^− 1
Kd ([1]; optically silent EF1 model for Fig. 3b data, read-out: Kd, EF1 site (alternative model)): 0.25 µM
Ca^2+ bound per monomer from calibrated Quin-2 amplitude ([1]; resolved signal, 6.5 μM S100A4, 100 μM Quin-2): one Ca^2+ bound per S100A4 monomer
Ca^2+ dissociation rate constant (Quin-2) ([1]; single exponential fit, no target): 16 s^− 1
rate constant of second slow phase of Ca^2+ dissociation ([1]; some preparations): 0.4–4 s^− 1
Substance: S100A4: recombinant S100A4 expressed in E. coli BL21(DE3)
kobs, Ca^2+ dissociation, no target (k− 1) ([1]; 10 μM S100A4 + 50 μM Ca^2+ mixed with 100 μM Quin-2, pH 7.5, 20 °C): 17 s^− 1
amplitude without added Ca^2+ ([1]; no added Ca^2+, excess Quin-2): 0.1 mol of Ca^2+ per mole of S100A4 monomer
Kd ([2]; read-out: Kd, site with negative enthalpy): 54 µM
Kd ([2]; read-out: Kd, site with positive enthalpy): 3.3 µM
S100A4 monomer excess per M200 chain required for full solubilisation (M200 filaments): 2 -fold molar excess
drop in turbidity (M200 filaments; 5 μM S100A4, M200 filaments, 100 mM NaCl): 54%
effect of excess EGTA on solubilisation (M200 filaments; excess EGTA): reversed the process, allowing M200 filaments to reform
turbidity after further S100A4 (M200 filaments; further 5 μM S100A4 (10 μM total)): almost zero
S100A4 monomer required to solubilise 1 mol of M200 (M200 filaments; per M200 polypeptide chain): 2 mol of S100A4 monomer
protein concentration at which monomer is detected ([3]; absence of Ca^2+): below 2 μM
concentration at which tetrameric and higher aggregates become significant ([3]; presence of Ca^2+): exceeding 20 μM
Ca^2+ affinity of tetramer relative to dimer ([3]; suggested by ultracentrifuge data): about 20 -fold
